Values of other authors, collected in US20230058142A1, “LIQUID PHARMACEUTICAL COMPOSITION COMPRISING CYTISINE” (priority 2019, published 2023).
pKi: −log10 of the molar value.

Target: nicotinic α4β2 receptors (Homo sapiens, UniProt P17787+P43681)
Details: read-out: Ki, affinity for nicotinic α4β2 receptors

nicotinic α4β2 receptors, sequence (P43681 29-627 limits assumed): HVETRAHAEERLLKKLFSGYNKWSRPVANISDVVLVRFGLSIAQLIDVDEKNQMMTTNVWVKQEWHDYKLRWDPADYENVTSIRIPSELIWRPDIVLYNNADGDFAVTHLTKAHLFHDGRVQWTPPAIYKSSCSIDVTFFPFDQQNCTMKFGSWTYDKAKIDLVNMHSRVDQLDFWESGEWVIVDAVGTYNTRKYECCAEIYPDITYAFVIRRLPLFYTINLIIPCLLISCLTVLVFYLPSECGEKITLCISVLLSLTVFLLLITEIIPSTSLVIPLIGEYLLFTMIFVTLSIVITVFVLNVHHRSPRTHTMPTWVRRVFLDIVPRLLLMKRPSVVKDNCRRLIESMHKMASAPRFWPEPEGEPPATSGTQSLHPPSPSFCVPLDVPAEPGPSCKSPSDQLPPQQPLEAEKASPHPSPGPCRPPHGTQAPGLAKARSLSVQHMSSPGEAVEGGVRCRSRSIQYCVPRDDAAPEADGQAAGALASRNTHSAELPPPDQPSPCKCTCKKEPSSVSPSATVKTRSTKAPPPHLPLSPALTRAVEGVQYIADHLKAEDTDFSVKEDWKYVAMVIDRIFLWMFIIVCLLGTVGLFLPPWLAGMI
nicotinic α4β2 receptors, sequence (P17787 26-502): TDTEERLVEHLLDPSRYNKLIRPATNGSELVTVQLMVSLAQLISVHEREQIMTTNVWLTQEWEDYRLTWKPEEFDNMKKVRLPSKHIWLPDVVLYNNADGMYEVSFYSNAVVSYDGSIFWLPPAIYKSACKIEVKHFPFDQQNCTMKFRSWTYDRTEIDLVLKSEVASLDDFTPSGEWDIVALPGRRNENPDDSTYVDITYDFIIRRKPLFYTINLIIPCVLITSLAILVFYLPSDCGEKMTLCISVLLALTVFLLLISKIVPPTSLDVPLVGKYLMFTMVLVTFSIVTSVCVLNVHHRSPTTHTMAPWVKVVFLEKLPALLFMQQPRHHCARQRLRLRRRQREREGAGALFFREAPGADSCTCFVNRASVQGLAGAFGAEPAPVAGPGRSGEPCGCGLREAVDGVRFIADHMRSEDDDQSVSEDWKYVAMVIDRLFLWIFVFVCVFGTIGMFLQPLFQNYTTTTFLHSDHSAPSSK

## O=c1cccc2n1C[C@@H]1CNC[C@H]2C1 [Cytisine, (1R-cis)-1,2,3,4,5,6-hexahydro-1,5-methano-8H-pyrido[1,2-a][1,5]diazocin-8-one]
  pKi: 6.35
